Test [1] relates to HT-29. Kind of test: cells. The conditions noted are these: Homo sapiens, HT-29, 72 h.
In test [2] the test system is A549. Kind of test: cells. The settings on record: Homo sapiens, A549, 72 h.
Description: Antiproliferative activity against human A549 cells after 72 hrs by MTT assay
Test [3] has as its system NCI-H460. Kind of test: Antiproliferative activity against human H460 cells after 72 hrs by MTT assay. Type of test: functional, cell-based. The settings on record: NCI-H460, 72 h.
Test [4] concerns U-87 MG. Kind of test: Antiproliferative activity against human U87MG cells after 72 hrs by MTT assay. It is filed as functional, cell-based, U-87MG ATCC. Background: Formazan colour is commonly taken as a measure of viable cells.
For test [5], the target named is ALK tyrosine kinase receptor (Homo sapiens, UniProt Q9UM73). Kind of test: Inhibition of ALK (unknown origin) using poly (Glu, Tyr) 4:1 as substrate after 30 mins in presence of ATP by HTRF assay.
Test [6] concerns the target Platelet-derived growth factor receptor beta (Homo sapiens, UniProt P09619). Kind of test: Inhibition of PDGFRbeta (unknown origin) using poly (Glu, Tyr) 4:1 as substrate after 30 mins in presence of ATP by HTRF assay.
For test [7], the target named is Vascular endothelial growth factor receptor 2 (Homo sapiens, UniProt P35968). Kind of test: Inhibition of VEGFR2 (unknown origin) using poly (Glu, Tyr) 4:1 as substrate after 30 mins in presence of ATP by HTRF assay.
Test [8] deals with Hepatocyte growth factor receptor (Homo sapiens, UniProt P08581). Kind of test: Inhibition of c-MET (unknown origin) using poly (Glu, Tyr) 4:1 as substrate after 30 mins in presence of ATP by HTRF assay. A general note: In TR-FRET formats the signal depends on donor and acceptor labels being close together.
Test [9] concerns the target T1, Receptor-type tyrosine-protein kinase FLT3 (Homo sapiens, UniProt P36888).
T1 sequence (P36888 whole entry): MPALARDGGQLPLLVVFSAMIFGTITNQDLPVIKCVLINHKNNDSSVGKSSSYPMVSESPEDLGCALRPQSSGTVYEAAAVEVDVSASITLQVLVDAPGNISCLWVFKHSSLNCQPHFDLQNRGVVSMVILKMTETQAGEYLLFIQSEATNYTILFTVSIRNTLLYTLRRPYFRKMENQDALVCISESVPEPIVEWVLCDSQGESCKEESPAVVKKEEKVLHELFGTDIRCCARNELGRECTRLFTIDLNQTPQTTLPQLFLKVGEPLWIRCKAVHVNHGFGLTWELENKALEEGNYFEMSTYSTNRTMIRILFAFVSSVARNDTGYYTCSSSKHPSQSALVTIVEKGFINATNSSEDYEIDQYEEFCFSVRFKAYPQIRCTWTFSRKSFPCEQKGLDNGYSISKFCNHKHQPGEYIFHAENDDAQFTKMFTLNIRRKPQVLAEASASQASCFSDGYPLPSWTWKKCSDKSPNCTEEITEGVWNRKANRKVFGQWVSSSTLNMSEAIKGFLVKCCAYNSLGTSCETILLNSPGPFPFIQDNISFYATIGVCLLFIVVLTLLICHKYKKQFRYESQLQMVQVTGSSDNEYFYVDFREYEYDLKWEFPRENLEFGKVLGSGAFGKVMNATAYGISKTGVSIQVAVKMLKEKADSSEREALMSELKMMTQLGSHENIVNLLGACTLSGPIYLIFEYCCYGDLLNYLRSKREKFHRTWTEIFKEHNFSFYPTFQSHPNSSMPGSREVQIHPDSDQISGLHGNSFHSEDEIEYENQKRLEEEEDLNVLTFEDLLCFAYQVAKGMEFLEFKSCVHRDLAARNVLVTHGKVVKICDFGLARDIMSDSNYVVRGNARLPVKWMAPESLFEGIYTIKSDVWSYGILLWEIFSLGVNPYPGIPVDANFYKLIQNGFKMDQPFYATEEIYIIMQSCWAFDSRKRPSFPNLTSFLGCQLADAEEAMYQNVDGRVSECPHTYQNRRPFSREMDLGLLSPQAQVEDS
Kind of test: Inhibition of FLT3 (unknown origin) using poly (Glu, Tyr) 4:1 as substrate after 30 mins in presence of ATP by HTRF assay.

In test [10] the target is Epidermal growth factor receptor (Homo sapiens, UniProt P00533). Kind of test: Inhibition of EGFR (unknown origin) using poly (Glu, Tyr) 4:1 as substrate after 30 mins in presence of ATP by HTRF assay.
For test [11], the target named is Mast/stem cell growth factor receptor Kit (Homo sapiens, UniProt P10721). Kind of test: Inhibition of c-KIT (unknown origin) using poly (Glu, Tyr) 4:1 as substrate after 30 mins in presence of ATP by HTRF assay.
Test [12] has as its target Platelet-derived growth factor receptor alpha (Homo sapiens, UniProt P16234). Kind of test: Inhibition of PDGFRalpha (unknown origin) using poly (Glu, Tyr) 4:1 as substrate after 30 mins in presence of ATP by HTRF assay.
Test [13] addresses Vascular endothelial growth factor receptor 3 (Homo sapiens, UniProt P35916). Kind of test: Inhibition of VEGFR3 (unknown origin) using poly (Glu, Tyr) 4:1 as substrate after 30 mins in presence of ATP by HTRF assay.

Molecules are shown by their SMILES. pIC50: −log10 of the molar value.

Sequence of Mast/stem cell growth factor receptor Kit (P10721 whole entry): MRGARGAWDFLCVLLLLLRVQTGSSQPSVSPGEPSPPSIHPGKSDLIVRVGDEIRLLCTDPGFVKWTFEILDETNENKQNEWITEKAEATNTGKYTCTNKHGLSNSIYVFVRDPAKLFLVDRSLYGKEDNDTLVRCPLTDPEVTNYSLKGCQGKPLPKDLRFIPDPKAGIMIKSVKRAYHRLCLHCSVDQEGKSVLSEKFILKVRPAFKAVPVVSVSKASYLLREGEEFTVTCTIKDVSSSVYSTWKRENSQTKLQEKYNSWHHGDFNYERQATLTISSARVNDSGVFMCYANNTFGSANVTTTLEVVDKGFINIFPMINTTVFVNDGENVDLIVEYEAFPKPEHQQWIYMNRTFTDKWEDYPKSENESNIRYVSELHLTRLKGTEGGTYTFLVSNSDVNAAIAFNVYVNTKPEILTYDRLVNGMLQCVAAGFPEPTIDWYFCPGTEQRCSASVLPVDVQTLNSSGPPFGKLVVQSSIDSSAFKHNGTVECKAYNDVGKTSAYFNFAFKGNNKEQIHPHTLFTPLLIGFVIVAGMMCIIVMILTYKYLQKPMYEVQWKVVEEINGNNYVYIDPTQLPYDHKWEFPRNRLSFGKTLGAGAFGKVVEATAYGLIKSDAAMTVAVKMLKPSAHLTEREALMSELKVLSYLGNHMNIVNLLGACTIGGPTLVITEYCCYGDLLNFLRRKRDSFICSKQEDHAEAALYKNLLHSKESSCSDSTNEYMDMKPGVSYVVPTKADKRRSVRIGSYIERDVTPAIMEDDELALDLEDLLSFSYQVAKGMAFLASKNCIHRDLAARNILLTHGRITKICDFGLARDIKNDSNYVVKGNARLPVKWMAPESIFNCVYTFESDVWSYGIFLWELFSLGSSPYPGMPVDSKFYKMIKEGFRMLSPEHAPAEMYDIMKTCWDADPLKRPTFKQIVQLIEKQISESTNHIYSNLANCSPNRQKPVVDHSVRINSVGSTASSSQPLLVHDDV
Sequence of Vascular endothelial growth factor receptor 3 (P35916 whole entry): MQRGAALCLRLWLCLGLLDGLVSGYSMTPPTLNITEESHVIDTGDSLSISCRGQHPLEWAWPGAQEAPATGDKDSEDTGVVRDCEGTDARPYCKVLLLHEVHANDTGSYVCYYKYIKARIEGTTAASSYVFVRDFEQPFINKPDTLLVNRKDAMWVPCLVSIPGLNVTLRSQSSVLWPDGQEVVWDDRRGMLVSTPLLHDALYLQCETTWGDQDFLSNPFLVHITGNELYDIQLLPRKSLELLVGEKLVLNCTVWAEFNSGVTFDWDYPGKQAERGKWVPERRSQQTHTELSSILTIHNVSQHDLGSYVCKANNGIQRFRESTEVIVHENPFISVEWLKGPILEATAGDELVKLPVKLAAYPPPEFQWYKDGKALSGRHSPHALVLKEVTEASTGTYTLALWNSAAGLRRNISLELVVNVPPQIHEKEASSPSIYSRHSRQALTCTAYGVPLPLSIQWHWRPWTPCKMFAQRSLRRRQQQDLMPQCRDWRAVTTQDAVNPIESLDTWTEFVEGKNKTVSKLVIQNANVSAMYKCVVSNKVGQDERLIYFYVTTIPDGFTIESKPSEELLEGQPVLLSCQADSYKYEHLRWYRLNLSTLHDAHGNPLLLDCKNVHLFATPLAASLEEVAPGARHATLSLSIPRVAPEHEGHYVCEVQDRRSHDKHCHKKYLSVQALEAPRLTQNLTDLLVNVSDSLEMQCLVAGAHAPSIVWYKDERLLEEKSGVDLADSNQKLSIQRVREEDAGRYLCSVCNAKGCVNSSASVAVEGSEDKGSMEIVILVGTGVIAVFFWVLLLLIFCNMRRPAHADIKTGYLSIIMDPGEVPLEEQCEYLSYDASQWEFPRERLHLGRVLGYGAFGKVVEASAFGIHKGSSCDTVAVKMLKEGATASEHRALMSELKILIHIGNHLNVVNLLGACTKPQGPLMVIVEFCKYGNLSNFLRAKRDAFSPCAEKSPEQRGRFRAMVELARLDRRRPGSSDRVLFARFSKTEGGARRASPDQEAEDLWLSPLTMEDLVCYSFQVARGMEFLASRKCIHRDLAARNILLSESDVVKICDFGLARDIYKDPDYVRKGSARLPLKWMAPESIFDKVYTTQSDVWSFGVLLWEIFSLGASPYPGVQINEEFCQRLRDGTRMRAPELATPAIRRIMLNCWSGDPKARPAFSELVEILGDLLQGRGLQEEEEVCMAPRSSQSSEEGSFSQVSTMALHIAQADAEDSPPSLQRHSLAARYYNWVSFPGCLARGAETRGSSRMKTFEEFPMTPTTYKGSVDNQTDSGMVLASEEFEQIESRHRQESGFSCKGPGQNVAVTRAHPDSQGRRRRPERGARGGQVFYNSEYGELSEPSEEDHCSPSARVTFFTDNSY
Sequence of Platelet-derived growth factor receptor alpha (P16234 whole entry): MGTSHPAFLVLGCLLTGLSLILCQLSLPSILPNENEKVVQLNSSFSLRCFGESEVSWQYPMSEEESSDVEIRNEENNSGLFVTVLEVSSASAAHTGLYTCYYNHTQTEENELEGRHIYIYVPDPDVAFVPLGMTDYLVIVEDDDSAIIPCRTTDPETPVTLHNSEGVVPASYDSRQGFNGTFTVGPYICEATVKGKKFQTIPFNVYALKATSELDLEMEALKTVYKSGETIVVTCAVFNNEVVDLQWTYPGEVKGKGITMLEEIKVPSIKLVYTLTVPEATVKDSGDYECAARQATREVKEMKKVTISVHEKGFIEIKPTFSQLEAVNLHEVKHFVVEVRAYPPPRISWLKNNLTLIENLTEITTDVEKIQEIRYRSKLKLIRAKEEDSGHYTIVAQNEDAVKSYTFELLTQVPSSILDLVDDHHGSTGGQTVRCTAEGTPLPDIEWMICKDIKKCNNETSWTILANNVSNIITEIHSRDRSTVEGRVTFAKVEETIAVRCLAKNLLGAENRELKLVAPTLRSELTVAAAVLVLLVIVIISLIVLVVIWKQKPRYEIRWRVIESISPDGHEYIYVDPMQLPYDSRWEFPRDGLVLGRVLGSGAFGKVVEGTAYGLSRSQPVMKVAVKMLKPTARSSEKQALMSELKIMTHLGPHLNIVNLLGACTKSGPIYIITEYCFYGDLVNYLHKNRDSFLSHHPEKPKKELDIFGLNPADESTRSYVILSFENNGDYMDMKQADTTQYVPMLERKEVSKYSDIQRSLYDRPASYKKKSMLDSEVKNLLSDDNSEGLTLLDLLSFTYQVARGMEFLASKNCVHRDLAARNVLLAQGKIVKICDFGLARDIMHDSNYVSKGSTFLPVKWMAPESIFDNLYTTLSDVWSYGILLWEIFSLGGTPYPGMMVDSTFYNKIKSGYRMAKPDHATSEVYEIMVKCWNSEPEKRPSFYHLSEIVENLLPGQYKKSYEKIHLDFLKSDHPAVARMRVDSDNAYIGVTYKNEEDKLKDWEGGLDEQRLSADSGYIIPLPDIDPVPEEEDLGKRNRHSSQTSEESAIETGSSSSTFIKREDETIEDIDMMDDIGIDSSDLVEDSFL
Sequence of Platelet-derived growth factor receptor beta (P09619 whole entry): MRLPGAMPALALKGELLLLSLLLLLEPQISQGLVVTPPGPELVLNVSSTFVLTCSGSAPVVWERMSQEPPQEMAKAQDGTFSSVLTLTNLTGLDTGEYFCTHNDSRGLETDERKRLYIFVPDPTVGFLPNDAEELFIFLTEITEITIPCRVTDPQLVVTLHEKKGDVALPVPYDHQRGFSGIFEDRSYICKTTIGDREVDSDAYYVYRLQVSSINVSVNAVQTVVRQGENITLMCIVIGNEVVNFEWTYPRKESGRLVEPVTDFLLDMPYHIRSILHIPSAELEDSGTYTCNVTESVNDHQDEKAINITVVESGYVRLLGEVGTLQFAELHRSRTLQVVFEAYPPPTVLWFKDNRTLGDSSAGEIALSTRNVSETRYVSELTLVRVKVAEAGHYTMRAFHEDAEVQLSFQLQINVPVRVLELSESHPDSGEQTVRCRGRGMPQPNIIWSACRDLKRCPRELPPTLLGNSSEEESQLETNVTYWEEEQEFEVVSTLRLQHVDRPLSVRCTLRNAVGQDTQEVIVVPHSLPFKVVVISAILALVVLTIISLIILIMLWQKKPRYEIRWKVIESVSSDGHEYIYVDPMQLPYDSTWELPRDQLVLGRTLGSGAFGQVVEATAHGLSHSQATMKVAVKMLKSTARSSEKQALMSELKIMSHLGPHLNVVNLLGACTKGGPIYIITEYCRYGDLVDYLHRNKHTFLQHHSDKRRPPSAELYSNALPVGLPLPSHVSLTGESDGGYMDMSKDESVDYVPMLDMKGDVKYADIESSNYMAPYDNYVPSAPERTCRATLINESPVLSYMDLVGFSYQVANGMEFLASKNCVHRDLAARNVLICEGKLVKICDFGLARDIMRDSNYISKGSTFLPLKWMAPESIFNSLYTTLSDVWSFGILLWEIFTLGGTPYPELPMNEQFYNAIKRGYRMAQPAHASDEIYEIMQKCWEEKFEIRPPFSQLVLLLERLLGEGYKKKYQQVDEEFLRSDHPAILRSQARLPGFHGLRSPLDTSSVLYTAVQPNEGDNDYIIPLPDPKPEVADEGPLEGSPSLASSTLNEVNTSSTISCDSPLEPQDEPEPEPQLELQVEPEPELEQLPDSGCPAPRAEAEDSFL

As a reminder, the pIC50 is the negative decadic logarithm of the IC50, by convention in mol/L. For `CCNC(=O)c1cc(Oc2ccc(NC(=O)c3cc4cccnc4n(-c4ccc(Cl)cc4)c3=O)cc2)ccn1`, the pIC50 in test [1] was 6.48; in test [2], 6.60.
The corresponding values for `CNC(=O)c1cc(Oc2ccc(NC(=O)c3cc4cccnc4n(-c4ccc(F)c(Cl)c4)c3=O)cc2)ccn1` are 5.74 and 5.81.
Take `CNC(=O)c1cc(Oc2ccc(NC(=O)c3cc4cccnc4n(-c4ccccc4F)c3=O)cc2)ccn1`: the pIC50 was 6.59 in test [1], 6.23 in test [3], 5.47 in [4] and 6.21 in test [2].
For the compound `CNC(=O)c1cc(Oc2ccc(NC(=O)c3cc4cccnc4n(-c4ccc(OC)cc4)c3=O)cc2)ccn1`, the figures for the pIC50 in test [1] and in [2] were 6.04 and 5.51, respectively.
Take `CCCNC(=O)c1cc(Oc2ccc(NC(=O)c3cc4cccnc4n(-c4ccc(F)cc4)c3=O)cc2)ccn1`: the pIC50 was 6.73 in [5]; 7.08 in [1]; 6.32 in test [6]; 6.54 in test [7]; 8.58 in [8]; 8.66 in test [9]. Further, the pIC50 in test [3] was 6.92; in test [10], less than 4.00; in [4], 6.02; in test [11] it was 6.28; in test [12] it was 6.16; in [2], 7.21. Also, the pIC50 in test [13] was 7.63.
Consider `CNC(=O)c1cc(Oc2ccc(NC(=O)c3cc4cccnc4n(-c4ccc(C(F)(F)F)cc4Cl)c3=O)cc2)ccn1`, for which the pIC50 was 5.50 in test [1], 5.68 in test [3], 4.70 in [4] and 5.68 in test [2].
As for `CCCNC(=O)c1cc(Oc2ccc(NC(=O)c3cc4cccnc4n(-c4ccc(OC)cc4)c3=O)cc2)ccn1`, the negative logarithm of the IC50 (pIC50) in test [1] is 5.81; in test [3], 5.76; in test [4], 5.09; in [2], 6.09.
With `CNC(=O)c1cc(Oc2ccc(NC(=O)c3cc4cccnc4n(-c4ccc(F)cc4)c3=O)cc2)ccn1`, the pIC50 is 6.80 in test [1], 6.68 in test [3], 5.54 in [4] and 6.96 in test [2].
Turning to `CCCNC(=O)c1cc(Oc2ccc(NC(=O)c3cc4cccnc4n(-c4ccc(F)c(Cl)c4)c3=O)cc2)ccn1`, the pIC50 in test [1] was 6.04; in test [3] it was 5.80; in [4], 5.44; in [2] it was 6.23.
The like results for `CCCNC(=O)c1cc(Oc2ccc(NC(=O)c3cc4cccnc4n(-c4ccccc4)c3=O)cc2)ccn1` were, in that order, 7.01, 6.96, 5.82 and 7.02.
For the compound `CCNC(=O)c1cc(Oc2ccc(NC(=O)c3cc4cccnc4n(-c4ccc(C(F)(F)F)cc4Cl)c3=O)cc2)ccn1`, the results for the pIC50 in test [1] and in test [2] were 5.32 and 5.48, respectively.
Regarding `CNC(=O)c1cc(Oc2ccc(NC(=O)c3cc4cccnc4n(-c4ccc(Br)cc4)c3=O)cc2)ccn1`, the pIC50 in [1] is 5.93; in [3] it was 5.43; in test [4] it was 4.82; in test [2], 5.98.
`CCCNC(=O)c1cc(Oc2ccc(NC(=O)c3cc4cccnc4n(-c4ccc(Br)cc4)c3=O)cc2)ccn1`: the pIC50 in test [1] was 6.28; in [3] it was 6.21; in test [4], 5.28; in [2], 6.82.
As to `CNC(=O)c1cc(Oc2ccc(NC(=O)c3cc4cccnc4n(-c4ccc(Br)cc4F)c3=O)cc2)ccn1`, the figures for the negative logarithm of the IC50 (pIC50) in [1] and in [2] were 5.71 and 5.85, respectively.
As for `CNC(=O)c1cc(Oc2ccc(NC(=O)c3cc4cccnc4n(-c4ccccc4)c3=O)cc2)ccn1`, the pIC50 in test [1] was 6.60; in test [3], 6.49; in test [4], 5.74; in test [2] it was 6.70.
Turning to `CCNC(=O)c1cc(Oc2ccc(NC(=O)c3cc4cccnc4n(-c4ccccc4F)c3=O)cc2)ccn1`, the pIC50 in [1] was 6.59; in test [3], 5.91; in test [4] it was 5.49; in test [2], 6.31.
For `CCNC(=O)c1cc(Oc2ccc(NC(=O)c3cc4cccnc4n(-c4ccc(Br)cc4)c3=O)cc2)ccn1`, the values for the pIC50 in test [1] and in test [2] were 5.94 and 6.04, respectively.
For the compound `CCNC(=O)c1cc(Oc2ccc(NC(=O)c3cc4cccnc4n(-c4ccc(F)c(Cl)c4)c3=O)cc2)ccn1`, the pIC50 was 5.59 in [1] and 5.72 in [2].
For the compound `CNC(=O)c1cc(Oc2ccc(NC(=O)c3cc4cccnc4n(-c4ccc(Cl)cc4)c3=O)cc2)ccn1`, the figures for the pIC50 in test [1] and in test [2] were 6.41 and 6.43, respectively.
As to `CCNC(=O)c1cc(Oc2ccc(NC(=O)c3cc4cccnc4n(-c4ccccc4)c3=O)cc2)ccn1`, the pIC50 was 6.66 in [1], 5.95 in [3], 5.58 in test [4] and 6.80 in test [2].
As for `CCCNC(=O)c1cc(Oc2ccc(NC(=O)c3cc4cccnc4n(-c4ccc(C(F)(F)F)cc4Cl)c3=O)cc2)ccn1`, the negative-log IC50 (pIC50) in [1] is 5.71; in [3], 5.50; in test [4], 4.96; in test [2], 5.90.
The like results for `CCCNC(=O)c1cc(Oc2ccc(NC(=O)c3cc4cccnc4n(-c4ccccc4F)c3=O)cc2)ccn1` were, in that order, 6.70, 6.41, 5.63 and 6.82.
As to `CCNC(=O)c1cc(Oc2ccc(NC(=O)c3cc4cccnc4n(-c4ccc(F)cc4)c3=O)cc2)ccn1`, the pIC50 in test [1] is 6.72; in test [3], 6.66; in [4], 5.95; in test [2] it was 6.92.
The corresponding values for `CCNC(=O)c1cc(Oc2ccc(NC(=O)c3cc4cccnc4n(-c4ccc(OC)cc4)c3=O)cc2)ccn1` are 5.47, 5.76, 5.14 and 5.70.
As for `CCCNC(=O)c1cc(Oc2ccc(NC(=O)c3cc4cccnc4n(-c4ccc(Cl)cc4)c3=O)cc2)ccn1`, the values for the pIC50 in test [1] and in [2] were 6.41 and 6.92, respectively.
For the compound `CCNC(=O)c1cc(Oc2ccc(NC(=O)c3cc4cccnc4n(-c4ccc(Br)cc4F)c3=O)cc2)ccn1`, the pIC50 was 5.68 in [1], 5.75 in test [3], 4.99 in [4] and 5.74 in test [2].
Consider `CCCNC(=O)c1cc(Oc2ccc(NC(=O)c3cc4cccnc4n(-c4ccc(Br)cc4F)c3=O)cc2)ccn1`, for which the pIC50 in [1] is 5.67; in [2], 5.88.
